In US20100029973A1, “Fatty acid analogues for equilibrating bone mineral density” (priority 2005, published 2010):

What was measured:
[1] = degradation time in vivo of ω-oxidation-blocked fatty acid analogue; details: triple bond at methyl end blocking ω-oxidation
Excerpt: ω-oxidation is believed to be the main pathway for degradation of the fatty acid analogues as described with a block in the X position. Experiments were thus performed where R′ was changed to block w-oxidation, by introducing a triple bond at the methyl end of the fatty acid analogue. […] This is important for the use of the fatty acid analogues in pharmaceutical preparation, as it may potentiate the effects of the β-oxidizable fatty acid analogues by further slowing down their breakdown.

femoral BMD = femoral BMD in rats by DXA; assay type: in vivo, rat; details: female Fischer rats, 50 mg/kg body weight, intragastric gavage, 4 months
Protocol: Fifty female Fischer rats were divided into 5 groups and were given methocel (control group), Wyeth 14,643, fenofibrate, tetradecylthioacetic acid (TTA) and pioglitazone (50 mg/kg body weight) by intragastric gavage for 4 months. Body weight was registered throughout the study. BMD was measured by double x-ray absorptiometry (DXA). Histomorhometry of femur was performed, and mechanical strength in the femoral shaft and collum femoris was measured.

human monocytes = assay: differentiation of human monocytes into osteoclasts; assay type: cell-based
[2] = test system: preosteoclast cell line RAW264.7; assay: proliferation of preosteoclast cell line RAW264.7; assay type: cell-based
[3] = test system: preosteoblast cell line MC3T3-E1; assay: release of OPG, RANKL and IL6 from preosteoblast cell line MC3T3-E1; assay type: cell-based; details: preosteoblasts (MC3T3-E1)
Excerpt: The effect of the PPAR agonists on release of osteoprotegerin (OPG), RANKL and IL6 from the preosteoblast cell line MC3T3-E1 was investigated. […] Wyeth 14643, fenofibrate and TTA were also shown to stimulate OPG release and inhibit IL6 release from preosteoblasts, while no effects on RANKL could be detected.

[4] = test system: mitochondrial β-oxidation in the liver; assay: activity of mitochondrial β-oxidation in the liver; details: fatty acid analogues with sulphur in 3, 5, 7 position vs palmitic acid control
Excerpt: Although all fatty acid anagoges with an odd positioning of the β-oxidation blocker X away from the carboxylic end block β-oxidation, the extent of their biological effect may be variable. This is due to the difference in biological degradation time of the various compounds. The inventors have done experiments to show the effect of moving X further from the carboxylic fatty acid end. In these experiments the activity (in nmol/min/mg/protein) of mitochondrial β-oxidation in the liver of fatty acid analogues was measured with sulphur in the 3, 5 and 7 positions relative to the carboxyl end. The activities were 0.81 for sulphur in the 3rd position, 0.61 for sulphur in the 5th position, 0.58 for sulphur in the 7th position, and 0.47 for palmitic acid, the non β-oxidation blocking control. […] However, as the decline is great for going from the 3rd to 5th position, but small going from the 5th to 7th position, it is reasonable to assume that this decline will continue to be less as one moves out the chain, and thus that it will be very far out indeed before no effect (compared to the control) is seen at all.

With `CC#CCCCCCCCCCCCSCC` [3-thia-15-heptadecyn] the “degradation time in vivo” value [1] was “substantially increased degradation time in vivo”.

In the case of `Cc1cccc(Nc2cc(Cl)nc(SCC(=O)O)n2)c1C` [Wyeth 14,643], the “change in femoral BMD versus control rats” value (“change” below) (femoral BMD) is reported as 7%, the “differentiation of human monocytes into osteoclasts” value (human monocytes) is reported as “inhibit the differentiation of human monocytes into osteoclasts in a dose-dependent manner” and the “proliferation of RAW264.7” value [2] is reported as “inhibited the proliferation”. For the same molecule, the IL6 release [3] was “stimulated”, the OPG release [3] was “stimulated” and the RANKL release [3] was “no effects”. The IL6 release ([3]; listed as Wyeth 14643) was “inhibit” and the OPG release ([3]; listed as Wyeth 14643) was “stimulate”.

With `CC(C)OC(=O)C(C)(C)Oc1ccc(C(=O)c2ccc(Cl)cc2)cc1` [fenofibrate] the “change” value (femoral BMD) was 5.7%.

For `CCCCCCCCCCCCCCCC(=O)O` [palmitic acid], the “activity of mitochondrial β-oxidation in the liver” value [4] was 0.47 nmol/min/mg/protein.

In the case of `CCc1ccc(CCOc2ccc(CC3SC(=O)NC3=O)cc2)nc1` (stereo not drawn) [pioglitazone], the “change” value (femoral BMD) is reported as −3%.
